{"source": "patent KR20140041632A", "about": "“제주조릿대 잎 추출물 또는 그로부터 분리된 파라-쿠마르산을 이용한 비만 및 지방간 개선제 조성물” (제주대학교 산학협력단, priority 2014, dated 2014)", "key": {"[1]": {"system": "3T3-L1 preadipocytes [3T3-L1 전구지방세포]", "test": "Inhibition of differentiation of 3T3-L1 preadipocytes into adipocytes (Oil Red O)", "assay_type": "cell-based", "conditions": "3T3-L1, 100uM, treatment Day4 ~ Day8, Oil Red O 540nm; Fig. 11"}, "LKB1": {"system": "LKB1", "test": "Western blot of p-LKB1 in differentiated 3T3-L1 adipocytes", "assay_type": "cell-based", "conditions": "Fig. 12"}, "AMPK [2]": {"system": "AMPK", "test": "Western blot of p-AMPK in differentiated 3T3-L1 adipocytes", "assay_type": "cell-based", "conditions": "Fig. 12"}, "ACC [3]": {"system": "ACC", "test": "Western blot of p-ACC in differentiated 3T3-L1 adipocytes", "assay_type": "cell-based", "conditions": "Fig. 12"}, "AMPK [4]": {"system": "AMPK", "test": "Western blot of p-AMPK in differentiated L6 cells", "assay_type": "cell-based, rat", "conditions": "48 h, Fig. 13"}, "ACC [5]": {"system": "ACC", "test": "Western blot of p-ACC in differentiated L6 cells", "assay_type": "cell-based, rat", "conditions": "48 h, Fig. 13"}, "PPARα": {"system": "PPARα", "test": "Western blot of PPARα in differentiated L6 cells", "assay_type": "cell-based, rat", "conditions": "48 h, vs control, Fig. 14"}, "AMPK [6]": {"system": "AMPK", "test": "Western blot of p-AMPK in HepG2 cells with induced fat accumulation", "assay_type": "cell-based", "conditions": "HepG2, oleic acid 600uM, 24 h; Fig. 15"}, "ACC [7]": {"system": "ACC", "test": "Western blot of p-ACC in HepG2 cells with induced fat accumulation", "assay_type": "cell-based", "conditions": "HepG2, oleic acid 600uM, 24 h; Fig. 15"}, "[8]": {"conditions": "several concentrations, vs control"}}, "note": "“Also recorded” adds a separate entry of the source."}
{"molecule": "O=C(O)/C=C/c1ccc(O)cc1", "note": "[p-쿠마르산, p-coumaric acid]", "values": [{"measurement": "TG content / triglyceride accumulation", "setting": "[1]", "value": "유의적으로 감소; also recorded: 중성지방의 축적을 억제"}, {"measurement": "LKB1 phosphorylation", "setting": "LKB1", "value": "증가 and 농도 의존적으로 LKB1의 인산화, AMPK의 인산화 및 ACC의 인산화를 증가시킴"}, {"measurement": "AMPK phosphorylation", "setting": "AMPK [2]", "value": "증가 and 농도 의존적으로 LKB1의 인산화, AMPK의 인산화 및 ACC의 인산화를 증가시킴"}, {"measurement": "ACC phosphorylation", "setting": "ACC [3]", "value": "증가 and 농도 의존적으로 LKB1의 인산화, AMPK의 인산화 및 ACC의 인산화를 증가시킴"}, {"measurement": "AMPK phosphorylation at highest concentration", "setting": "AMPK [4]; 50uM", "value": "현저한 증가"}, {"measurement": "AMPK phosphorylation", "setting": "AMPK [4]; [8]", "value": "농도의존적으로 증가; also recorded: 농도 의존적으로 AMPK 및 ACC의 인산화를 증가시킴"}, {"measurement": "ACC phosphorylation at highest concentration", "setting": "ACC [5]; 50uM", "value": "현저한 증가"}, {"measurement": "ACC phosphorylation", "setting": "ACC [5]; [8]", "value": "농도의존적으로 증가; also recorded: 농도 의존적으로 AMPK 및 ACC의 인산화를 증가시킴"}, {"measurement": "PPARα expression", "setting": "PPARα", "value": "증가 and 농도 의존적으로 PPARα 발현을 증가시킴"}, {"measurement": "AMPK phosphorylation", "setting": "AMPK [6]", "value": "농도의존적으로 증가; also recorded: 농도 의존적으로 AMPK 및 ACC의 인산화를 증가시킴"}, {"measurement": "ACC phosphorylation", "setting": "ACC [7]", "value": "농도의존적으로 증가; also recorded: 농도 의존적으로 AMPK 및 ACC의 인산화를 증가시킴"}]}
